Measurements from patent US20220233238A1, “DELIVERY CATHETER AND METHOD OF DISEASE TREATMENT” (Neurotronic, Inc., priority 2019, published 2022).
Values joined by “and” are separate entries in the source; they are usually repeats but may differ in a detail not shown here. Equal entries are not always repeated. “Also recorded” adds a separate entry of the source. Where two headings read alike, the source gives them in different places.

Legend:
[1] = test system: renal arteries, hepatic artery, splenic artery, and the left gastric artery; conditions: patient A; for Body weight: base 103 kg; for 24-Hour blood pressure, DBP / 24-Hour blood pressure, SBP: average 24-hour ambulatory; for 24-Hour blood pressure, DBP: base 109; for 24-Hour blood pressure, SBP: base 164; for High-density lipoprotein (HDL): base 39 mg/dL; for Triglycerides: base 336 mg/dL
Protocol: The targeted arteries for their treatment were renal arteries, hepatic artery, splenic artery, and the left gastric artery.
In the procedure, modest sedation per the institution's standard practice was used and no general anesthesia was used. The arteries were engaged using a 7F guiding catheter, introduced via the femoral artery. Angiography was performed of the arteries before intervention. All four arteries were treated in the same procedure. The treatment started at upper body arteries in the order of splenic, hepatic, left gastric, left renal, and right renal arteries. After the initial angiography survey of the hepatic artery, splenic artery and left gastric artery, the rapid-exchange version of the triple-needle single-balloon catheter was advanced through the guiding catheter and into the artery over a guiding wire.
The maximum catheter needle span diameter was about 12 mm, and the span diameter was adjustable per artery diameter. […] The function of this balloon was to center the distal head/shaft without over-stretching the artery.
The infusion time was within 10 seconds for each application. […] The treatment steps were repeated for the second treatment (balloon inflation, needle deployment, infusion ablation, needle withdrawal, balloon deflation). The total volume of the alcohol used in the two treatments was 1.2 mL for the splenic artery.
The same treatment method and procedure steps as in the treatment of the splenic artery were used for common hepatic artery ablation. The catheter was replaced with a fresh catheter for the common hepatic artery ablation. There were two treatments total at about 15 mm apart of each other (between the treatment sites) for the common hepatic artery with the same ablation dosage of 0.6 mL. The total volume of the alcohol used for the hepatic artery ablation was 1.2 mL. After the hepatic treatment, the catheter was placed into the left gastric artery for next ablation treatment. Again, the same treatment method and procedure was used, with the exception that one ablation treatment of 0.6 mL of the alcohol was applied for the left gastric artery. Angiography was performed after the withdrawal of the triple-needle balloon delivery catheter.
After the ablation treatments of the three arteries above, angiography was performed of the renal arteries before intervention. The suitable branches and main arteries were assessed and predetermined for treatment. After the assessment, the triple-needle balloon delivery catheter was advanced through the guiding catheter and over the guiding wire into the branch artery of left renal arteries and stopped just beyond the bifurcated area.

[2] = test system: hepatic, splenic, celiac, right renal and left renal arteries; conditions: patient B; for average 24-hour ambulatory blood pressure, DBP: base 79; for average 24-hour ambulatory blood pressure, SBP: base 136
Protocol: (§1) In another example, multiple arteries/tissues were treated for hypertension. […] Patient B had 5 years of hypertension history. Patient B went through the same procedure and ablation treatment method as patient A in Example 3.

[3] = test system: hepatic, splenic, celiac, right renal and left renal arteries; conditions: patient B; for fasting glucose: base 186 mg/dL
Protocol: as §1
In another example, multiple arteries/tissues were treated for diabetes.

[4] = test system: hepatic, splenic, celiac, right renal and left renal arteries; conditions: patient B; for Body weight: base 83 kg
Protocol: as §1
In another example, multiple arteries/tissues were treated for managing body weight. The patient B with 3 years of obesity history had their body weight improved after the ablation procedure. The treated multiple arteries were hepatic, splenic, celiac, right renal and left renal arteries.

renal artery = assay: Pre-clinical trial: renal artery ethanol ablation (renal denervation) with triple-needle single-balloon catheter
hepatic artery = assay: Pre-clinical trial: hepatic artery ethanol ablation (hepatic denervation) with triple-needle single-balloon catheter
[5] = maintained at 3 months follow-up

With CCO [ethanol] the Body weight ([1]; 1 mo post-procedure) was 95.6 kg, the “24-Hour blood pressure, DBP” value ([1]; 1 mo) was 87 mmHg and the “24-Hour blood pressure, SBP” value ([1]; 1 mo) was 140 mmHg. For the same compound, the “High-density lipoprotein (HDL)” value ([1]; 1 mo) was 43 mg/dL, the Triglycerides ([1]; 1 mo) was 139 mg/dL and the Body weight ([1]; 2 wk post-procedure) was 96.2 kg. For the same compound, the “High-density lipoprotein (HDL)” value ([1]; 2 wks) was 42 mg/dL, the Triglycerides ([1]; 2 wks) was 160 mg/dL and the TG/HDL ratio ([1]; 3-month follow-up, 8.6 at baseline, normal range <5) was 4.2. For the same compound, the “24-Hour blood pressure, DBP” value ([1]; 3 mo) was 84 mmHg, the “24-Hour blood pressure, SBP” value ([1]; 3 mo) was 141 mmHg and the “HbA1c value change vs baseline” value ([1]; 3 months follow-up, absolute change) was about −1%. The Body weight ([1]; 3 mos post-procedure) was 96.2 kg, the “High-density lipoprotein (HDL)” value ([1]; 3 mos) was 40 mg/dL and the Triglycerides ([1]; 3 mos) was 167 mg/dL. For the same compound, the “Blood sugar level, HbA1c” value ([1]; 3 mos, base 7.5%) was 6.6%, the “weight loss, reduction” value ([1]; since week 3 (2 wk time point), maintained at 3 months) was “about 7%” and the triglyceride level reduction ([1]; two weeks follow-up) was “about 50%”. The “diastolic (DBP) blood pressure drop from the baseline” value [1, 5] was about 20%, the “systolic (SBP) blood pressure drop from the baseline” value [1, 5] was “about 14%” and the “average 24-hour ambulatory blood pressure, DBP” value ([2]; 1 mo) was 61 mmHg. For the same compound, the “average 24-hour ambulatory blood pressure, SBP” value ([2]; 1 mo) was 107 mmHg, the “diastolic (DBP) blood pressure drop from the baseline” value ([2]; 1 month follow-up) was about 23% and the “systolic (SBP) blood pressure drop from the baseline” value ([2]; 1 month follow-up) was “about 21%”. For the same compound, the “average 24-hour ambulatory blood pressure, DBP” value ([2]; 3-mo) was 66 mmHg, the “average 24-hour ambulatory blood pressure, SBP” value ([2]; 3-mo) was 115 mmHg and the “DBP percentage drop from baseline level” value ([2]; 3 month follow-up) was “about 15%”. The “SBP percentage drop from baseline level” value ([2]; 3 month follow-up) was “about 15%”, the “fasting glucose level change from baseline” value ([3]; 1-month follow-up) was −50% and the fasting glucose ([3]; 1 mo) was 92 mg/dL. For the same compound, the “fasting glucose level change from baseline” value ([3]; 2 weeks follow-up) was −32%, the fasting glucose ([3]; 2 wks) was 127 mg/dL and the “HbA1c improvement from the baseline, absolute value” ([3]; 3 months after the procedure) was −2.1%. For the same compound, the HbA1c percent reduction ([3]; 3 months after the procedure, relative to baseline) was about 26%, the “fasting glucose level reduction from the baseline” value ([3]; 3 months follow-up) was −41% and the fasting glucose ([3]; 3 mos) was 110 mg/dL. For the same compound, the “Blood sugar HbA1c” value ([3]; 3 mos, base 8.1%) was 6.0%, the Body weight ([4]; 1 mo) was 79.9 kg and the “initial body weight loss from the baseline” value ([4]; 2 weeks follow-up) was −4.5%. For the same compound, the Body weight ([4]; 2 wks) was 79.3 kg, the Body weight ([4]; 3 mos) was 79.1 kg and the “histopathologic evaluation of renal arteries and surrounding tissues” value (renal artery; after ethanol ablation, FIG. 11) was “renal nerve injury; also recorded: severed renal nerves necrosis”. The “renal arterial spasms (post-ablation renal angiograms)” value (renal artery; during and after the infusion treatment) was “no significant renal arterial spasms”, the “average renal tissue NE content, treated side” value (renal artery; porcine renal cortex, two weeks after treatment, HPLC, control side 87 ng/g) was 4.9 ng/g and the “reduction in renal norepinephrine concentration” value (renal artery; porcine, two weeks after treatment, treated side vs contralateral untreated renal artery side (control 87 ng/g), total 1.8 mL) was 94%. The gross necropsy (renal artery; two weeks after treatment) was “all treatment related organs were normal”, the “arterial spasms (hepatic angiograms)” value (hepatic artery; during and after the infusion treatment, both animals) was “no significant arterial spasms” and the “average liver NE concentration reduction” value (hepatic artery; one value per animal (two animals), two weeks after treatment, vs untreated control animal, 2 x 0.6 mL) was 85% and 94%. For the same compound, the gross necropsy (hepatic artery; two weeks after the treatment) was “all treatment related organs were normal”.
